This experiment deals with T1, Human complement C1s enzyme (Homo sapiens, UniProt P09871).
T1 construct: purified from human serum, Complement Technology, Inc; purchased Complement Technology, Inc; host or cells: human serum (plasma-derived natural protein)
T1 sequence (P09871 438-688 limits assumed): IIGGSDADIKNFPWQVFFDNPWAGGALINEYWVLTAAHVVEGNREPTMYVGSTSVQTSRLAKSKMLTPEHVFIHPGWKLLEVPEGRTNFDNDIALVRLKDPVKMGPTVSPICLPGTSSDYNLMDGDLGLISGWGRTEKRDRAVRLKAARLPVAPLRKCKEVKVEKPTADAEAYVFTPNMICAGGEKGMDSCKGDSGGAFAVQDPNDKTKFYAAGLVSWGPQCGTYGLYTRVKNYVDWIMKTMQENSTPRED
T1 sequence (P09871 16-437 partner limits assumed): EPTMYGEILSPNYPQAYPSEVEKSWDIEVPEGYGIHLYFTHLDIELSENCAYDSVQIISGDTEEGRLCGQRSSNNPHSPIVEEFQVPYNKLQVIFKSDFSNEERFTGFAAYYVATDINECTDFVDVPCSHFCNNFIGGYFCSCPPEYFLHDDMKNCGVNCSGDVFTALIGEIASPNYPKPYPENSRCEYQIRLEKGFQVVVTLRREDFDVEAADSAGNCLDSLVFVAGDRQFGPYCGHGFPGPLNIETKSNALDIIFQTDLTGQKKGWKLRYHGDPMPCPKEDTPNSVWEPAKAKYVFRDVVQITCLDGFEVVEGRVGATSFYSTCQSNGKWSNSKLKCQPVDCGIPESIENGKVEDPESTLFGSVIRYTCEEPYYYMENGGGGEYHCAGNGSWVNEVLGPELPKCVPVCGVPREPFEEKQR
The experiment is described as follows: Human C1s Enzyme Assay. It is filed as biochemical. Conditions: C1s purified from human serum, 1.16 nM, substrate Z-L-Lys-SBzl, read-out: C1s Protease Activity. As to the method:
Example 4. Human C1s Enzyme Assay
Human complement C1s enzyme (purified from human serum, Complement Technology, Inc.) at 1.16 nM final concentration is incubated with test compound at various concentrations for 5 min at room temperature in 50 mM Tris, 1 M NaCl, pH 7.5. A synthetic substrate Z-L-Lys-SBzl and DTNB (Ellman's reagent) are added to final concentrations of 100 μM each. Absorbance at 405 nm (A405) is recorded at 30 second intervals for 30 min using a microplate spectrophotometer. IC50 values are calculated by nonlinear regression of complement C1s reaction rates as a function of test compound concentration.

Where two headings read alike, the source gives them in different places.

For the compound `N=C(N)c1csc(CNC(=O)[C@@H]2CCCN2C(=O)CCC2(c3ccc(Oc4ccccc4)cc3)CC2)c1` [Compound 44, (S)-N-((4-carbamimidoylthiophen-2-yl)methyl)-1-(3-(1-(4-phenoxyphenyl)cyclopropyl)propanoyl)pyrrolidine-2-carboxamide], the IC50 (Table 2) is over 1000 nM. For `Cc1cccc(O[C@H]2C[C@@H](C(=O)NCc3cc(C(=N)N)cs3)N(C(=O)CNC(=O)c3ccc(Oc4ccccc4)cc3)C2)c1` [Compound 104, (2S,4S)-N-((4-carbamimidoylthiophen-2-yl)methyl)-1-((4-phenoxybenzoyl)glycyl)-4-(m-tolyloxy)pyrrolidine-2-carboxamide], the IC50 (Table 3) was under 100 nM. As to `N=C(N)c1csc(CNC(=O)[C@@H]2C[C@@H](OC(F)F)CN2C(=O)CNC(=O)c2ccc(Oc3ccccc3)cc2)c1` [Compound 101, (2S,4R)-N-((4-carbamimidoylthiophen-2-yl)methyl)-4-(difluoromethoxy)-1-((4-phenoxybenzoyl)glycyl)pyrrolidine-2-carboxamide], the IC50 (Table 3) is under 100 nM.

As for `CN(C)CCCC(=O)NCC(=O)N1CCC[C@H]1C(=O)NCc1cc(C(=N)N)cs1` [Compound 69, (S)-N-((4-carbamimidoylthiophen-2-yl)methyl)-1-((4-(dimethylamino)butanoyl)glycyl)pyrrolidine-2-carboxamide], for the setting “Table 2”, the IC50 was over 1000 nM. Same read-out and setting: the value for `Cc1cc(C(=O)NCC(=O)N2CCC[C@H]2C(=O)NCc2cc(C(=N)N)cs2)ccc1Oc1ccccc1` [Compound 39, (S)-N-((4-carbamimidoylthiophen-2-yl)methyl)-1-((3-methyl-4-phenoxybenzoyl)glycyl)pyrrolidine-2-carboxamide] was under 100 nM; that for `CCCCCc1ccc(C(=O)NCC(=O)N2CCC[C@H]2C(=O)NCc2cc(C(=N)N)cs2)cc1` [Compound 74, (S)-N-((4-carbamimidoylthiophen-2-yl)methyl)-1-((4-pentylbenzoyl)glycyl)pyrrolidine-2-carboxamide] was under 100 nM; that for `Cc1cc(C(=O)NCC(=O)N2CC3(C[C@H]2C(=O)NCc2cc(C(=N)N)cs2)OCCO3)ccc1Oc1ccccc1` [Compound 47, (S)-N-((4-carbamimidoylthiophen-2-yl)methyl)-7-((3-methyl-4-phenoxybenzoyl)glycyl)-1,4-dioxa-7-azaspiro[4.4]nonane-8-carboxamide] was under 100 nM. Turning to `N=C(N)CCCNC(=O)[C@@H]1CC2(CN1C(=O)CNC(=O)c1ccc(Oc3ccccc3)cc1)OCCO2` [Compound 16, (8S)—N-(3-Carbamimidoylpropyl)-7-{2-[(4-phenoxyphenyl)formamido]acetyl}-1,4-dioxa-7-azaspiro[4.4]nonane-8-carboxamide], for the setting “Table 1”, the IC50 is over 1000 nM. For `N#C/N=C(\N)c1csc(CNC(=O)[C@@H]2CC3(CN2C(=O)CNC(=O)c2ccc(Oc4ccccc4)cc2)OCCO3)c1` [Compound 63, (S,Z)-N-((4-(N′-cyanocarbamimidoyl)thiophen-2-yl)methyl)-7-((4-phenoxybenzoyl)glycyl)-1,4-dioxa-7-azaspiro[4.4]nonane-8-carboxamide], under “Table 2”, the IC50 was under 100 nM.

In the case of `N=C(N)c1csc(CNC(=O)C2CC3(CC3)CN2C(=O)CNC(=O)c2ccc(Oc3ccccc3)cc2)c1` (stereo not shown) [Compound 10, N-[(4-Carbamimidoylthiophen-2-yl)methyl]-5-{2-[(4-phenoxyphenyl)formamido]acetyl}-5-azaspiro[2.4]heptane-6-carboxamide], the IC50 (Table 1) lay within 100 to 1000 nM. For `C[C@H]1C[C@@H](C(=O)NCc2cc(C(=N)N)cs2)N(C(=O)CNC(=O)c2ccc(Oc3ccccc3)cc2)C1` [Compound 30, (2S,4S)—N-[(4-carbamimidoylthiophen-2-yl)methyl]-4-methyl-1-{2-[(4-phenoxyphenyl)formamido]acetyl}pyrrolidine-2-carboxamide], the IC50 (Table 1) is under 100 nM. On to `CC(=O)Nc1ccc(CNC(=O)[C@@H]2CC3(CN2C(=O)CNC(=O)c2ccc(Oc4ccccc4)cc2)OCCO3)cc1` [Compound 21, (8S)—N-[(4-Acetamidophenyl)methyl]-7-{2-[(4-phenoxyphenyl)formamido]acetyl}-1,4-dioxa-7-azaspiro[4.4]nonane-8-carboxamide], for which the IC50 (Table 1) was over 1000 nM.

`CCCCCOc1ccc(C(=O)NCC(=O)N2CCC[C@H]2C(=O)NCc2cc(C(=N)N)cs2)cc1` [Compound 79, (S)-N-((4-carbamimidoylthiophen-2-yl)methyl)-1-((4-(pentyloxy)benzoyl)glycyl)pyrrolidine-2-carboxamide]: for the setting “Table 2”, the IC50 is under 100 nM. For the compound `CCCCc1cc(C(=O)NCC(=O)N2CCC[C@H]2C(=O)NCc2cc(C(=N)N)cs2)ccc1Oc1ccccc1` [Compound 43, (S)-1-((3-butyl-4-phenoxybenzoyl)glycyl)-N-((4-carbamimidoylthiophen-2-yl)methyl)pyrrolidine-2-carboxamide], the IC50 (Table 2) was under 100 nM. In the case of `N=C(N)CCCCNC(=O)[C@@H]1CC2(CN1C(=O)CNC(=O)c1ccc(Oc3ccccc3)cc1)OCCO2` [Compound 17, (8S)—N-(4-Carbamimidoylbutyl)-7-{2-[(4-phenoxyphenyl)formamido]acetyl}-1,4-dioxa-7-azaspiro[4.4]nonane-8-carboxamide], the IC50 (Table 1) is over 1000 nM.

As to `N=C(N)c1csc(CNC(=O)[C@@H]2CCCN2C(=O)NNC(=O)c2ccc(Oc3ccccc3)cc2)c1` [Compound 59, (S)-N-((4-carbamimidoylthiophen-2-yl)methyl)-1-(2-(4-phenoxybenzoyl)hydrazine-1-carbonyl)pyrrolidine-2-carboxamide], the IC50 (Table 2) is 100 to 1000 nM.

`Cc1cc(C(=O)NCC(=O)N2CC3(CCCC3)C[C@H]2C(=O)NCc2cc(C(=N)N)cs2)ccc1Oc1ccccc1` [Compound 46, (S)-N-((4-carbamimidoylthiophen-2-yl)methyl)-2-((3-methyl-4-phenoxybenzoyl)glycyl)-2-azaspiro[4.4]nonane-3-carboxamide]: under “Table 2”, the IC50 is under 100 nM. Consider `C=C1C[C@@H](C(=O)NCc2cc(C(=N)N)cs2)N(C(=O)CNC(=O)c2ccc(Oc3ccccc3)cc2)C1` [Compound 6, (2S)—N-[(4-Carbamimidoylthiophen-2-yl)methyl]-4-methylidene-1-{2-[(4-phenoxyphenyl)formamido]acetyl}pyrrolidine-2-carboxamide], for which, under “Table 1”, the IC50 is under 100 nM. In the case of `C[C@@]12C[C@@H]1N(C(=O)CNC(=O)c1ccc(Oc3ccccc3)cc1)[C@H](C(=O)NCc1cc(C(=N)N)cs1)C2` [Compound 9, (1S,3S,5S)—N-[(4-Carbamimidoylthiophen-2-yl)methyl]-5-methyl-2-{2-[(4-phenoxyphenyl)formamido]acetyl}-2-azabicyclo[3.1.0]hexane-3-carboxamide], under “Table 1”, the IC50 is under 100 nM. In the case of `C=C(CCC(=O)N1CCC[C@H]1C(=O)NCc1cc(C(=N)N)cs1)c1ccc(Oc2ccccc2)cc1` [Compound 40, (S)-N-((4-carbamimidoylthiophen-2-yl)methyl)-1-(4-(4-phenoxyphenyl)pent-4-enoyl)pyrrolidine-2-carboxamide], the IC50 (Table 2) was 100 to 1000 nM. Same read-out and setting: for `CCCc1cc(C(=O)NCC(=O)N2CCC[C@H]2C(=O)NCc2cc(C(=N)N)cs2)ccc1Oc1ccccc1` [Compound 41, (S)-N-((4-carbamimidoylthiophen-2-yl)methyl)-1-((4-phenoxy-3-propylbenzoyl)glycyl)pyrrolidine-2-carboxamide] the value was under 100 nM.

Regarding `NCCCCNC(=O)[C@@H]1CC2(CN1C(=O)CNC(=O)c1ccc(Oc3ccccc3)cc1)OCCO2` [Compound 25, (8S)—N-(4-Aminobutyl)-7-{2-[(4-phenoxyphenyl)formamido]acetyl}-1,4-dioxa-7-azaspiro[4.4]nonane-8-carboxamide], the IC50 (Table 1) is over 1000 nM. In the case of `NCc1csc(CNC(=O)[C@@H]2CCCN2C(=O)CNC(=O)c2ccc(Oc3ccccc3)cc2)c1` [Compound 55, (S)-N-((4-(aminomethyl)thiophen-2-yl)methyl)-1-((4-phenoxybenzoyl)glycyl)pyrrolidine-2-carboxamide], where the note is “Table 2”, the IC50 was over 1000 nM. Turning to `CO[C@@H]1C[C@H](C(=O)CNC(=O)c2ccc(Oc3ccccc3)cc2)[C@@H](C(=O)NCc2cc(C(=N)N)cs2)C1` [Compound 62, N-(2-((1S,2S,4R)-2-(((4-carbamimidoylthiophen-2-yl)methyl)carbamoyl)-4-methoxycyclopentyl)-2-oxoethyl)-4-phenoxybenzamide], the IC50 (Table 2) is over 1000 nM. Take `CO[C@H]1C[C@H](C(=O)CNC(=O)c2ccc(Oc3ccccc3)cc2)[C@H](C(=O)NCc2cc(C(=N)N)cs2)C1` [Compound 34, N-(2-((1S,2R,4S)-2-(((4-carbamimidoylthiophen-2-yl)methyl)carbamoyl)-4-methoxycyclopentyl)-2-oxoethyl)-4-phenoxybenzamide]: the IC50 (Table 1) is over 1000 nM.

(Values after patent US12479856B2, “Pharmaceutical compounds for the treatment of complement mediated disorders” (Achillion Pharmaceuticals, Inc., priority 2019, dated 2025).)
